We go through 22 compounds from patent US11639350B2, “Heteroaryldihydropyrimidine derivatives and methods of treating hepatitis B infections” (Janssen Pharmaceutica NV, priority 2018, dated 2023).

Like-named read-outs stand apart in the source and are kept apart here.

The subject of one data set is HBV. The data set can be described thus: HBV inhibitory activity: HBV DNA in the culture medium of HepG2.2.15 cells by q-PCR. The data set is classed as cell-based. The note with it: HepG2.2.15 cells, 6 days of compound treatment, HBV DNA in culture medium by q-PCR, highest concentration 10 μM, read-out: EC50. The essentials:
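HepG2.2.15 cells in 2% FBS medium, 40,000 per well, treated 6 days with compound (medium refreshed once), eight 3-fold dilutions from 10 μM top. HBV DNA extracted from culture medium and quantified by q-PCR; EC50 averaged over repeats. Cytotoxicity run in parallel at 5,000 cells per well, top 100 μM, giving CC50.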

The test system of another data set is HepG2.2.15 cells. The data set can be described thus: Cytotoxicity determination in HepG2.2.15 cells (CCK-8). The data set is classed as cell-based. The note with it: 6 days of compound treatment, CCK-8, highest concentration 100 μM. In outline:
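HepG2.2.15 cells seeded at 5,000 cells/well in 2% FBS medium, incubated overnight at 37° C., then treated 6 days with compounds (8 points, 3-fold dilutions, top 100 μM), medium refreshed once midway. CCK-8 added for 2.5 h; A450 read against 630 nm reference; CC50 calculated, averaged over repeats.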

The EC50 is the concentration giving half of the maximal effect. One may read the CC50 as the concentration at which the toxic effect on the cells reaches its halfway point. High values mean better tolerance by the cells, low ones harm at low concentration.

With `COC(=O)C1=C(C2CCN(S(=O)(=O)C3CC(C)(C(=O)O)C3)CC2)NC(c2nccs2)=NC1c1ccc(F)cc1C` (stereo not drawn) [Compound 447C, (trans)-3-((4-(6-(4-Fluoro-2-methylphenyl)-5-(methoxycarbonyl)-2-(thiazol-2-yl)-3,6-dihydropyrimidin-4-yl)piperidin-1-yl)sulfonyl)-1-methylcyclobutanecarboxylic Acid], in the data set on HBV, the EC50 was determined as 80 nM. In the data set with HepG2.2.15 cells, this compound had a CC50 of 48200 nM.
For `CCOC(=O)C1=C(C2CCN(S(=O)(=O)C3CC(C)(C(=O)O)C3)CC2)NC(c2nccs2)=NC1c1ccc(F)cc1Cl` (stereo not drawn) [Compound 272A, (trans)-3-((4-(6-(2-Chloro-4-fluorophenyl)-5-(ethoxycarbonyl)-2-(thiazol-2-yl)-3,6-dihydropyrimidin-4-yl)piperidin-1-yl)sulfonyl)-1-methylcyclobutanecarboxylic Acid], in that order: 17 nM and 16600 nM.
For the compound `COC(=O)C1=C(C2CCN(C)C(=O)C2)NC(c2nccs2)=NC1c1ccc(F)cc1Cl` (single isomer, unassigned) [Compound 1A, Methyl 4-(2-chloro-4-fluorophenyl)-6-(1-methyl-2-oxopiperidin-4-yl)-2-(thiazol-2-yl)-1,4-dihydropyrimidine-5-carboxylate], the EC50 with HBV worked out at 386 nM. For the same compound, in the data set on HepG2.2.15 cells, the CC50 worked out at 90200 nM.
`COC(=O)C1=C(C2CCCN(S(C)(=O)=O)C2)NC(c2nccs2)=NC1c1ccc(F)cc1Cl` (single isomer, unassigned) [Compound 33C, Methyl 4-(2-chloro-4-fluorophenyl)-6-(1-(methylsulfonyl)piperidin-3-yl)-2-(thiazol-2-yl)-1,4-dihydropyrimidine-5-carboxylate]: in the data set with HBV, the 50% effective concentration (EC50) stood at 484 nM. The compound also had a CC50 in the data set with HepG2.2.15 cells of 37700 nM.
For `COC(=O)C1=C(C2CCCOC2)NC(c2nccs2)=NC1c1ccc(F)cc1Cl` (single isomer, unassigned) [Compound 48D, Methyl 4-(2-chloro-4-fluorophenyl)-6-(tetrahydro-2H-pyran-3-yl)-2-(thiazol-2-yl)-1,4-dihydropyrimidine-5-carboxylate], in that order: 210 nM and over 100000 nM.
In the same order, the values of `COC(=O)C1=C(C2COC(CO)C2)NC(c2nccs2)=NC1c1cccc(F)c1Cl` (single isomer, unassigned) [Compound 219H, Methyl 4-(2-chloro-3-fluorophenyl)-6-(5-(hydroxymethyl)-tetrahydrofuran-3-yl)-2-(thiazol-2-yl)-1,4-dihydropyrimidine-5-carboxylate] are 334 nM and 1500 nM.
In the same order, the values of `CCOC(=O)C1=C(C2CCN(S(=O)(=O)CC3CC(C(=O)O)C3)CC2)NC(c2nccs2)=NC1c1ccc(F)c(F)c1Cl` (centres unmarked) [Compound 480Y, 3-(((4-(6-(2-Chloro-3,4-difluorophenyl)-5-(ethoxycarbonyl)-2-(thiazol-2-yl)-3,6-dihydropyrimidin-4-yl)piperidin-1-yl)sulfonyl)methyl)cyclobutanecarboxylic Acid] are 11 nM and 10200 nM.
In the case of `COC(=O)C1=C(C23CC(N(C[C@@H](O)CO)S(C)(=O)=O)(C2)C3)NC(c2nccs2)=NC1c1ccc(F)cc1Cl` (single isomer, unassigned) [Compound 376D], the EC50 with HBV was 35 nM. Also, the 50% cytotoxic concentration (CC50) with HepG2.2.15 cells is 97300 nM.
Take `COC(=O)C1=C(C2CCC(NS(C)(=O)=O)C2)NC(c2nccs2)=NC1c1cccc(F)c1Cl` (single isomer, unassigned) [Compound 61E, Methyl 4-(2-chloro-3-fluorophenyl)-6-(3-(methylsulfonamido)cyclopentyl)-2-(thiazol-2-yl)-1,4-dihydropyrimidine-5-carboxylate]: the half-maximal effective concentration (EC50) with HBV came out at 358 nM. Further, half-maximal cytotoxicity with HepG2.2.15 cells (CC50) was put at 21700 nM.
In the case of `CCOC(=O)C1=C(C2CCN(S(=O)(=O)C3CC(C)(C(=O)O)C3)CC2)NC(c2nccs2)=NC1c1cccc(F)c1Br` (single isomer, unassigned) [Compound 414D, (cis)-3-((4-(6-(2-Bromo-3-fluorophenyl)-5-(ethoxycarbonyl)-2-(thiazol-2-yl)-3,6-dihydropyrimidin-4-yl)piperidin-1-yl)sulfonyl)-1-methylcyclobutanecarboxylic Acid], the EC50 in the data set with HBV turned out to be 39 nM. The same compound returned a CC50 in the data set on HepG2.2.15 cells of 16300 nM.
Regarding `COC(=O)C1=C(C2CCN(S(=O)(=O)[C@H]3C[C@](C)(C(=O)O)C3)CC2)NC(c2nccs2)=NC1c1cccc(F)c1Cl` (stereo partly drawn) [Compound 274A, (trans)-3-((4-(−6-(2-Chloro-3-fluorophenyl)-5-(methoxycarbonyl)-2-(thiazol-2-yl)-3,6-dihydropyrimidin-4-yl)piperidin-1-yl)sulfonyl)-1-methylcyclobutanecarboxylic Acid], the EC50 with HBV turned out to be 42 nM. In addition, half-maximal cytotoxicity with HepG2.2.15 cells (CC50) was put at 31400 nM.
Regarding `CCCS(=O)(=O)N1CCC(C2=C(C(=O)OC)C(c3ccc(F)cc3Cl)N=C(c3nccs3)N2)C1` (single isomer, unassigned) [Compound 256D, Methyl 4-(2-chloro-4-fluorophenyl)-6-(−1-(propylsulfonyl)pyrrolidin-3-yl)-2-(thiazol-2-yl)-1,4-dihydropyrimidine-5-carboxylate], in the data set with HBV, the EC50 is 964 nM. The compound further gave a CC50 in the data set with HepG2.2.15 cells of 22900 nM.
In the same order, the values of `COC(=O)C1=C(C2CCN(S(=O)(=O)[C@H]3C[C@H](C(=O)O)C3)CC2)NC(c2nccs2)=NC1c1ccc(F)c(F)c1Cl` (single isomer, unassigned) [Compound 232X, (trans)-3-((4-(6-(2-Chloro-3,4-difluorophenyl)-5-(methoxycarbonyl)-2-(thiazol-2-yl)-3,6-dihydropyrimidin-4-yl)piperidin-1-yl)sulfonyl)cyclobutanecarboxylic Acid] are 105 nM and 70000 nM.
For `CCOC(=O)C1=C([C@@H]2CCC[C@H](C(=O)O)CC2)NC(c2nccs2)=NC1c1ccc(F)c(F)c1Cl` (relative stereo) [Compound 302E, (cis)-4-(−6-(2-Chloro-3,4-difluorophenyl)-5-(ethoxycarbonyl)-2-(thiazol-2-yl)-3,6-dihydropyrimidin-4-1)cycloheptanecarboxylic Acid], in that order: 25 nM and 14600 nM.
For `COC(=O)C1=C(C2CCNC(=O)C2)NC(c2nccs2)=NC1c1ccc(F)cc1Cl` (single isomer, unassigned) [Compound 3A, Methyl 4-(2-chloro-4-fluorophenyl)-6-(2-oxopiperidin-4-yl)-2-(thiazol-2-yl)-1,4-dihydro-pyrimidine-5-carboxylate], in the data set with HBV (Hepatitis B virus, HepG2.2.15, 144 h), the EC50 is 126 nM. Further, the 50% cytotoxic concentration (CC50) with HepG2.2.15 cells is 35900 nM.
Consider `COC(=O)C1=C(C2CCC(=O)N2)NC(c2nccs2)=NC1c1cccc(F)c1Cl` (single isomer, unassigned) [Compound 75D, Methyl 4-(2-chloro-3-fluorophenyl)-6-(5-oxopyrrolidin-2-yl)-2-(thiazol-2-yl)-1,4-dihydropyrimidine-5-carboxylate], for which the concentration giving a half-maximal response (EC50) in the data set on HBV amounted to 45 nM. Half-maximal cytotoxicity in the data set with HepG2.2.15 cells (CC50) was put at 10200 nM.
In the same order, the values of `COC(=O)C1=C([C@H]2CCC[C@@H](CO)C2)NC(c2nccs2)=NC1c1ccc(F)cc1Cl` (single isomer, unassigned) [Compound 173C, Methyl 4-(2-chloro-4-fluorophenyl)-6-((cis)-3-(hydroxymethyl)cyclohexyl)-2-(thiazol-2-yl)-1,4-dihydropyrimidine-5-carboxylate] are 107 nM and 9900 nM.
For `CCOC(=O)C1=C(C2CCN(S(=O)(=O)C3CC(C)(C(=O)O)C3)CC2)NC(c2nccs2)=NC1c1ccc(F)c(F)c1Cl` (stereo not drawn) [Compound 270B, (cis)-3-((4-(6-(2-Chloro-3,4-difluorophenyl)-5-(ethoxycarbonyl)-2-(thiazol-2-yl)-3,6-dihydropyrimidin-4-yl)piperidin-1-yl)sulfonyl)-1-methylcyclobutanecarboxylic Acid], in that order: 17 nM and 10300 nM.
Consider `COC(=O)C1=C(C2CCN(S(=O)(=O)C3CC(C)(C(=O)OC)C3)CC2)NC(c2nccs2)=NC1c1ccc(F)c(F)c1Cl` (single isomer, unassigned) [Compound 323D, cis-methyl 4-(2-chloro-3,4-difluorophenyl)-6-(1-((3-(methoxycarbonyl)-3-methylcyclobutyl)sulfonyl)piperidin-4-yl)-2-(thiazol-2-yl)-1,4-dihydropyrimidine-5-carboxylate], for which the EC50 in the data set on HBV was 30 nM. Half-maximal cytotoxicity in the data set with HepG2.2.15 cells (CC50) was put at 28600 nM.
With `COC(=O)C1=C(C2CCC(NC(C)=O)C2)NC(c2nccs2)=NC1c1ccc(F)c(F)c1Cl` (single isomer, unassigned) [Compound 300G, Methyl 6-(−3-acetamidocyclopentyl)-4-(2-chloro-3,4-difluorophenyl)-2-(thiazol-2-yl)-1,4-dihydropyrimidine-5-carboxylate], in the data set on HBV, the EC50 stood at 122 nM. Further, in the data set with HepG2.2.15 cells, the midpoint of cytotoxicity, the CC50, lay at 23900 nM.
For `COC(=O)C1=C(C2CCC(C(=O)O)C2)NC(c2nccs2)=NC1c1ccc(F)cc1Cl` (single isomer, unassigned) [Compound 72F, 3-(6-(2-Chloro-4-fluorophenyl)-5-(methoxycarbonyl)-2-(thiazol-2-yl)-3,6-dihydropyrimidin-4-yl)cyclopentanecarboxylic Acid], in that order: 58 nM and 30000 nM.
For `COC(=O)C1=C([C@H]2CC[C@H](C(=O)OC)CC2)NC(c2nccs2)=NC1c1ccc(F)cc1Cl` (some centres unmarked) [Compound 18X], in that order: 42 nM and 27900 nM.
